# In PubChem BioAssay (NCI):
#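 Cells were grown in 96-well plates and exposed to each compound for 48 hours at five concentrations; endpoints were interpolated linearly between bracketing concentrations, or set to the highest concentration if not reached. GI50 = concentration required for 50% inhibition of growth. TGI is the concentration that stops growth completely.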
# How the values were obtained:
# Experiment in all cases: NCI-60 cell line screen, 48 h
# [1] = system: NCI/ADR-RES ovarian
# [2] = system: 786-0 renal
# [3] = system: MOLT-4 leukemia
# [4] = system: SF-268 CNS
# [5] = system: SK-MEL-2 melanoma
# [6] = system: A549 NSCLC
# [7] = system: DU-145 prostate
Structure (SMILES),GI50 [1] [µM],TGI [1] [µM],GI50 [2] [µM],TGI [2] [µM],GI50 [3] [µM],TGI [3] [µM],GI50 [4] [µM],TGI [4] [µM],GI50 [5] [µM],TGI [5] [µM],GI50 [6] [µM],TGI [6] [µM],GI50 [7] [µM],TGI [7] [µM]
COC(=O)/C=C/c1cc(OC(C)=O)c2c(c1)C(C(=O)OC)C(c1ccc(OC(C)=O)c(OC(C)=O)c1)O2 (stereo unspecified),0.098,> 100,0.488,> 56.8,0.0582,> 47.4,0.617,> 100,3.69,> 100,1.35,> 56.7,0.131,> 100
COc1ccc(Cl)cc1NC(=O)c1ccc(NC2=C(Cl)C(=O)N(Cc3ccccc3)C2=O)cc1,55.1,> 100,> 100,> 100,1.43,13.4,25.3,> 100,–,–,> 100,> 100,> 100,> 100
O=C(Nc1nc(-c2c[nH]c3ccccc23)cs1)c1n[nH]c(=O)c2ccccc12,6.74,78.6,1.48,> 47.5,0.792,> 35.4,1.25,> 46.2,13.4,> 100,1.57,83.6,3.33,> 31
COc1c(C)c(OCC=C(C)C)cc(CO)c1CO,–,> 100,–,> 100,–,> 100,–,> 100,–,> 100,–,> 100,–,> 100
COc1ccc(-c2c(C#N)c(N3CCOCC3)nc3[nH]c(=S)[nH]c(=S)c23)cc1OC,56.6,> 100,30.7,> 100,39.6,> 100,31.6,> 100,> 100,> 100,> 100,> 100,58.7,> 100
COC(=O)c1c(C)cc(OC)c(C/C=C(\C)CCCc2coc(C=C(C)C)c2)c1OC,–,> 100,–,> 100,–,> 100,–,> 100,–,> 100,–,> 100,–,> 100
CSC[C@H](NC(=O)COc1cccc2cnccc12)C(=O)NC(Cc1ccccc1)C(O)C(=O)N1CSC[C@H]1C(=O)NC(C)(C)C (stereo partly specified),–,> 100,–,> 100,–,> 100,–,63,–,> 100,–,> 100,–,> 100
Cc1cc(C(=O)CSC(=S)SC(C)(C)C)ccc1Cl,–,42.1,–,74.4,–,62.9,–,33.1,–,35,–,50,–,> 100
NCCCn1c2c(c3ccc([N+](=O)[O-])cc3c1=O)C(=O)c1cc(I)ccc1-2,0.0416,1.88,0.021,1.14,< 0.01,0.251,0.0841,3.43,0.649,2.28,0.0133,1.74,< 0.01,0.118
O=C(O)c1ccc(CNCc2ccccc2)cc1,–,> 100,–,> 100,–,> 100,–,> 100,–,> 100,–,> 100,–,> 100
COc1c2occc2c(N)c2ccc(=O)oc12,–,> 100,–,> 100,–,> 100,–,> 100,–,> 100,–,> 100,–,> 100
COc1ccc(CNc2c3ccccc3nc3ccccc23)cc1F,2.58,10.3,3.6,13.7,3.28,14.6,3.76,15.1,3.45,13.4,3.55,18,3.65,12.4
CNc1cc2oc(=O)cc(C)c2cc1C,–,> 100,–,> 100,–,> 100,–,> 100,–,> 100,–,> 100,–,> 100
CCSc1nc(N=Cc2ccccc2O)c2cn[nH]c2n1,20.3,63.6,41.8,> 100,52.8,> 100,23.9,77.4,39.9,> 100,46.2,> 100,72.1,> 100
CNCCCNc1ccnc2cc(Cl)ccc12,34.4,> 100,32.9,> 100,20.6,69.9,22.6,98.3,19.6,37.9,–,–,17.3,38.5
O=c1[nH]c(O)c(C=Nc2ccc(-c3nc4ccccc4o3)cc2)c(=O)[nH]1,3.56,9.59,32.9,> 100,> 100,> 100,> 100,> 100,37.8,> 100,74.9,> 100,> 100,> 100
NC(=O)c1cc(I)ccc1NC(=O)/C=C/c1ccccc1,0.351,3.92,1.32,> 68.1,0.539,–,1.4,23.7,2.25,> 56.6,1.33,> 100,0.352,2.97
CN(C)CCN1CCC(Cc2ccccc2)CC1,> 80,> 80,> 80,> 80,> 80,> 80,> 80,> 80,> 80,> 80,> 80,> 80,> 80,> 80
C=C(C)[C@@H]1CC[C@]2(CN)CC[C@]3(C)[C@H](CC[C@@H]4[C@@]5(C)CCCNC(C)(C)[C@@H]5CC[C@]43C)[C@@H]12,–,–,1.74,3.57,1.93,4.47,–,–,2.11,3.88,1.95,3.71,1.59,2.97
COc1cc(/C=C2\CCCCC3=C2N=C2SC(C)=CN2C3c2cc(OC)c(OC)c(OC)c2)cc(OC)c1OC (stereo unspecified),12,> 100,40.5,> 100,0.542,78,36.7,> 100,9.91,> 100,20.4,> 100,> 100,> 100
COc1nc(=O)n(C2C=CC(=O)O2)cc1F (stereo unspecified),10.1,37.4,12.1,25.1,–,–,15.5,37.3,16.5,54.1,25.9,87.3,11.1,28.2

Structure (SMILES),GI50 [1] [µM],TGI [1] [µM],GI50 [2] [µM],TGI [2] [µM],GI50 [3] [µM],TGI [3] [µM],GI50 [4] [µM],TGI [4] [µM],GI50 [5] [µM],TGI [5] [µM],GI50 [6] [µM],TGI [6] [µM],GI50 [7] [µM],TGI [7] [µM]
CCCCCCn1c(-c2ccc(C(=O)O/N=C(\N)c3ccc4c(c3)OCO4)cc2)nc(-c2ccccc2)c1-c1ccccc1,1.68,3.65,1.02,2.56,1.74,4.55,2.11,4.64,4.19,21.7,1.41,3.68,1.33,2.66
O=C(CNc1ccc(Cl)cc1Cl)Nn1c(-c2ccccc2)nc2ccccc2c1=O,–,52.9,–,35.1,–,43.3,–,21.6,–,–,–,> 100,–,27.5
CNc1nc(N)nc(Nc2ccc(I)cc2)c1N=O,–,> 100,–,> 100,–,> 100,–,> 100,–,> 100,–,> 100,–,> 100
c1ccc(C2=NOC(c3ccccc3)N2C23CC4CC(CC(C4)C2)C3)cc1 (stereo unspecified),–,> 10,–,> 10,–,> 10,–,> 10,–,> 10,–,> 10,–,> 10
COc1cc2c3c(n(C)c(=O)c2cc1OC)-c1cc2c(cc1C3=O)OCO2,–,> 100,–,> 77.7,–,54.7,–,> 100,–,> 72.2,–,> 100,–,> 100
N#CC(I)CS(=O)(=O)c1ccccc1 (stereo unspecified),17.5,35.1,19.1,33.2,–,–,18.8,35.2,17.6,33.2,22.7,47.6,17.2,31.3
O=C(CC(=O)Nc1ccccc1)NNC(Sc1ccccc1)c1cc(N=Nc2ccc(Br)cc2)ccc1O (stereo unspecified),–,> 10,–,> 10,–,> 10,–,8.9,–,> 10,–,> 10,–,> 10
NNc1ncnc2nc[nH]c12,3.37,> 100,3.03,> 83.8,5.31,> 60.1,8.24,> 100,9.27,97.4,4.94,> 38.6,3.29,67.8
COc1cc2c(cc1OCCCN1CCN(CCCOc3cc4c(cc3OC)C(=O)N3CC(F)(F)C[C@H]3C=N4)CC1)N=C[C@@H]1CC(F)(F)CN1C2=O,25.2,72.9,3.17,10.8,2.02,8.37,3.57,14.5,10.3,23.1,7.32,43,3.63,13.3
O=[N+]([O-])c1cccnc1N=Nc1c(O)[nH]c2ccccc12,–,> 100,–,52,–,> 100,–,> 100,–,53.4,–,47.7,–,29.6
NC(N)=Nc1nc2ccccc2o1,> 100,> 100,> 100,> 100,> 100,> 100,> 100,> 100,> 100,> 100,> 100,> 100,> 100,> 100
COC(=O)C1=CN(CC2=CC(=O)C(C)=CC2=O)C=C(C(=O)OC)C1c1ccccc1OC,17.4,34.8,15.1,28.9,5.61,14.2,18.7,58.6,45.2,> 100,29.3,> 59.4,16.8,31.3
Cc1nc2c(Br)cc(Br)cc2c(=O)n1-c1nnc(-c2cccc(Cl)c2Cl)c(N)n1,13.6,37.5,18.4,48.2,15.3,62.1,45.5,> 100,27.4,> 100,25.6,85.1,27.8,> 100
CCOc1c(OC)cc(-c2nc3n(n2)C(=O)C(CC)S3)cc1OC (stereo unspecified),–,> 10,–,> 10,–,> 10,–,> 10,–,> 10,–,> 10,–,> 10
Nc1c(C(=O)Nc2ccccn2)sc2nc3c(cc12)C(=O)CCC3,0.929,> 100,1.33,44.6,> 100,> 100,8.26,> 100,0.443,> 100,1.78,> 100,1.98,> 100
COC(=O)c1c2c(c(C)[n+]([O-])c1C)C(=O)C(NCc1ccc(Br)cc1)=CC2=O,1.97,7.03,3.13,11.2,1.97,4.74,2.21,7.12,1.88,6.12,–,–,–,–
C=C(CN(C)Cc1ccccc1)c1ccc(NC(=O)c2ccc(C(=C)CN(C)Cc3ccccc3)cc2)cc1,34.8,> 100,25.6,65.4,49.8,> 100,39.3,> 100,60.9,> 100,77.8,> 100,71.6,> 100
O=[N+]([O-])c1ccccc1N=Nc1c(O)[nH]c2c(Cl)cc(Cl)cc12,–,> 100,–,39,–,> 87.8,–,> 100,–,> 74.3,–,> 100,–,> 100
CCCCCCCCSC1=C(Cl)C(=O)C(OC)=C(OC)C1=O,–,> 100,–,30,–,–,–,28.7,–,30.9,–,48.4,–,40.5
CCCCOCCOC1=C(Cl)C(=O)c2c(O)ccc(O)c2C1=O,–,9.14,–,0.505,–,1.96,–,3.18,–,2.78,–,4.64,–,3.08
